Measurements reported in EP0768085A1, “ANTIBACTERIAL AGENT” (DAIICHI PHARMACEUTICAL CO., LTD., priority 1994, dated 1996).
Values after ≈ are worked out from the molar mass of the structure shown.

Assays:
Type in all cases: cell-based
[1] = tested on: Bordetella bronchiseptica (SM2-4); assay: Antibacterial activity (IC), broth microplate as in Example 4 (Example 7, Table 42); details: for MIC: 18 h
Procedure: (§1) A suitable amount of a sample was dissolved in dimethylsulfoxide (DMSO), and the resultant solution was diluted with the same amount of sterilized distilled water to prepare a bulk sample of 1,000 µg/ml. Mueller-Hinton broth (product of DIFCO) was dispensed into each well of 96-well microplate. Thereafter, the bulk specimen was added to the first well of a row, and successively diluted (10-fold each time) with sterilized distilled water. Separately, a bacterial cell suspension for the test (Staphylococcus aureus 209-P) which had been cultured in the above-mentioned broth overnight at 37°C was inoculated to each well so that the final inoculation amount of 10^6 CFU/ml was attained. The final concentrations of the samples were 100, 10, and 1 µg/ml.
(§2) The antibacterial action was evaluated by the inhibitory concentration (hereinafter abbreviated as IC) at which propagation of the bacteria cultured at 37°C for 18 hours was inhibited. Inhibition was determined by the turbidity of the medium. The expressions "IC≤100", "≤10", and "≤1" indicate that MIC-equivalent values obtained at the succesive […] dilution of the sample are 100-10 µg/ml, 10-1 µg/ml, and not more than 1 µg/ml, respectively. […] (In the subsequent Examples, the same rule applies correspondingly.) Table 39
In a manner similar to that described in Example 4, antibacterial activity of the invention compound was determined. The bacterium used for the test was Bordetella bronchiseptica (SM2-4).

[2] = tested on: Staphylococcus aureus TI-1; assay: Antibacterial activity (IC), broth microplate as in Example 4 (Example 5, Table 40); details: for MIC: TI1, 18 h
Procedure: as §1, §2
In a manner similar to that described in Example 4, antibacterial activity of the invention compound was determined. The bacterium used for the test was Staphylococcus aureus TI-1.

[3] = tested on: Staphylococcus aureus 209-P; assay: Antibacterial activity (IC), Mueller-Hinton broth, 96-well microplate (Example 4, Table 39); details: 37°C, 18 hours
Procedure: as §1, §2

[4] = tested on: methicillin-resistant Staphylococcus aureus (MRSA) isolated from humans; assay: Antibacterial activity (IC), Mueller-Hinton agar containing the sample (Example 8, Table 43); details: for IC: 18 hours; for MIC: Staphylococcus aureus, MRSA, 18 h
Procedure: as §2
(§3) A suitable amount of a sample was dissolved in dimethylsulfoxide (DMSO), after which the resulting solution was diluted with the same amount of sterilized distilled water to prepare a bulk sample of 1,000 µg/ml. Separately, a bacterial liquid for the test (methicillin-resistant Staphylococcus aureus (MRSA) isolated from humans) which had been cultured in Mueller-Hinton broth (product of DIFCO) was prepared and inoculated to a Mueller-Hinton agar (product of DIFCO) containing the sample so that the final inoculation amount of 10^6 CFU/ml was achieved. The final concentrations of the samples were 100, 10, and 1 µg/ml.
(§4) After culturing at 37°C for 18 hours, the antibacterial activity was evaluated in terms of IC in a manner similar to that described in Example 4.

[5] = tested on: Pasteurella multocida (Kobe-6); assay: Antibacterial activity (IC), broth microplate as in Example 4 (Example 6, Table 41); details: origin pig; for MIC: 18 h
Procedure: as §1, §2
In a manner similar to that described in Example 4, antibacterial activity of the invention compound was determined. The bacterium used for the test was Pasteurella Kobe-6 (origin: pig; Pasteurella multocida).

Enterococcus from fish = assay: Antibacterial activity (IC), agar as in Example 8, media with 1.5% NaCl, 25°C (Example 20, Tables 53-55)
Method in brief: (§5)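 Growth inhibition was scored by turbidity after culture at 25°C, with IC bands set from 2-fold-dilution MIC-equivalents. Samples were tested at final 100, 10 and 1 µg/ml in Mueller-Hinton agar with 1.5% NaCl, seeded with 10^6 CFU/ml of the fish isolates.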

Pasteurella from fish = assay: as above
Method in brief: as §5

[6] = tested on: Staphylococcus aureus (209-P); assay: Antibacterial activity (IC), agar as in Example 8 (Example 15, Table 48); details: 18 h
Method in brief: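 Agar dilution with Mueller-Hinton agar containing sample at final 100, 10 and 1 µg/ml, inoculated to 10^6 CFU/ml. Incubated at 37°C for 18 h, growth inhibition judged by medium turbidity. IC bands at successive 2-fold dilution: 100-10, 10-1, or ≤1 µg/ml.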

[7] = tested on: Streptococcus aureus (TI-1); assay: Antibacterial activity (IC), agar as in Example 8 (Example 16, Table 49); details: 18 h
Method in brief: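 Broth-grown […] aureus (TI-1) inoculated onto Mueller-Hinton agar containing compound, per the MRSA method; DMSO/water dilutions at final 100, 10 and 1 µg/ml, 10^6 CFU/ml inoculum. After 18 h at 37°C, growth inhibition judged by turbidity; IC reported as bands (100-10, 10-1, ≤1 µg/ml).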

[8] = tested on: Pasteurella multocida (Kobe-6); assay: Antibacterial activity (IC), agar as in Example 8 (Example 17, Table 50); details: 18 h, origin pig
Method in brief: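 Agar dilution on Mueller-Hinton agar with compound at 100, 10 and 1 µg/ml, inoculated at 10^6 CFU/ml with pig-origin strain Kobe-6. After 18 h at 37 °C, IC scored from turbidity and reported as a band (≤100, ≤10, ≤1 µg/ml).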

[9] = tested on: methicillin-resistant Staphylococcus aureus (MRSA) from humans; assay: Antibacterial activity (IC), agar as in Example 8 (Example 19, Table 52); details: 18 h
Method in brief: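 MRSA human isolate at 10^6 CFU/ml on Mueller-Hinton agar containing compound at 100, 10 or 1 µg/ml, grown 18 h at 37 °C. IC is the lowest tested level that inhibited growth, binned as ≤100, ≤10 or ≤1 µg/ml.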

[10] = tested on: Bordetella bronchiseptica (SM2-4); assay: Antibacterial activity (IC), agar as in Example 8 (Example 18, Table 51); details: 18 h
Procedure: as §2, §3, §4
(§6) In a manner similar to that described in Example 8, antibacterial activity of the invention compound was determined. The bacterium used for the test was Bordetella bronchiseptica (S1) and Bordetella bronchiseptica (SM2-4).

[11] = tested on: Bordetella bronchiseptica (S1); assay: as above; details: 18 h
Procedure: as §2, §3, §4, §6

[12] = Enterococcus Seriolicida KG86050
[13] = Enterococcus Seriolicida MS89060
[14] = Enterococcus Seriolicida MS89064
[15] = Enterococcus Seriolicida MS89066
[16] = Enterococcus Seriolicida MS89068
[17] = Enterococcus Seriolicida SE94-001
[18] = Enterococcus Seriolicida SE94-002
[19] = Enterococcus Seriolicida SE94-003
[20] = Enterococcus Seriolicida SE94-004
[21] = Enterococcus Seriolicida SE94-005

Compound | IC (Enterococcus from fish; Enterococcus Seriolicida HI) | IC (Enterococcus from fish; [12]) | IC (Enterococcus from fish; [13]) | IC (Enterococcus from fish; [14]) | IC (Enterococcus from fish; [15]) | IC (Enterococcus from fish; [16]) | IC (Enterococcus from fish; [17]) | IC (Enterococcus from fish; [19]) | IC (Enterococcus from fish; [20]) | IC (Enterococcus from fish; [21]) | MIC [1] [µg/mL] | MIC [2] [µg/mL] | MIC [3] [µg/mL] | MIC ([4]; MRSA strain 891179, 37°C) [µg/mL] | MIC ([4]; MRSA strain 891185, 37°C) [µg/mL] | MIC ([4]; MRSA strain 891187, 37°C) [µg/mL] | MIC ([4]; MRSA strain 891192, 37°C) [µg/mL] | MIC ([4]; MRSA strain 900048, 37°C) [µg/mL] | MIC ([4]; MRSA strain 900056, 37°C) [µg/mL] | MIC [5] [µg/mL] | also measured
4-[2-(2-chloro-4-trifluoromethylphenoxy)-4-methylphenoxy]-2-(3,4-dichlorophenyl)-3-oxopentanonitrile and 4-[2-(2-chloro-4-trifluoromethylphenoxy)-5-methylphenoxy]-2-(3,4-dichlorophenyl)-3-oxopentanonitrile [Compound No. 308] | ≤ 1 µg/mL | ≤ 1 µg/mL | ≤ 1 µg/mL | ≤ 1 µg/mL | ≤ 1 µg/mL | ≤ 1 µg/mL | ≤ 1 µg/mL | ≤ 1 µg/mL | ≤ 1 µg/mL | ≤ 1 µg/mL | – | – | – | – | – | – | – | – | – | – | IC [1]: 308 (≤100) (MIC-equivalent values obtained at the succesive 2-fold dilution of the sample are 100-10 µg/ml); IC [2]: 308 (≤1) (not more than 1 µg/ml); IC [3]: 308 (≤1) (not more than 1 µg/ml); IC ([4]; MRSA strain 891179, 37°C): ≤ 1 µg/mL; IC ([4]; MRSA strain 891185, 37°C): ≤ 1 µg/mL; IC ([4]; MRSA strain 891187, 37°C): ≤ 1 µg/mL; IC ([4]; MRSA strain 891192, 37°C): ≤ 1 µg/mL; IC ([4]; MRSA strain 900048, 37°C): ≤ 1 µg/mL; IC ([4]; MRSA strain 900056, 37°C): ≤ 1 µg/mL; IC [5]: 308 (≤10) (10-1 µg/ml); IC (Enterococcus from fish; [18]): ≤ 1 µg/mL; IC (Pasteurella from fish; Pasteurella piscicida KP94-02): ≤; IC (Pasteurella from fish; Pasteurella piscicida KP94-04): ≤; IC (Pasteurella from fish; Pasteurella piscicida KP94-05): ≤; IC (Pasteurella from fish; Pasteurella piscicida KP94-06): ≤
Cc1cc(Oc2ccc(C(F)(F)F)cc2Cl)cc(OC(C)C(=O)C(C#N)c2ccc(Cl)c(Cl)c2)c1 (centres unmarked) [Compound No. 112, 4-[3-(2-chloro-4-trifluoromethylphenoxy)-5-methylphenoxy]-2-(3,4-dichlorophenyl)-3-oxopentanonitrile] | ≤10 (10-1 µg/ml) | ≤10 (10-1 µg/ml) | ≤10 (10-1 µg/ml) | ≤10 (10-1 µg/ml) | ≤10 (10-1 µg/ml) | ≤10 (10-1 µg/ml) | ≤10 (10-1 µg/ml) | ≤10 (10-1 µg/ml) | ≤10 (10-1 µg/ml) | ≤10 (10-1 µg/ml) | – | – | – | – | – | – | – | – | – | – | MIC [6]: ≤ 1 µg/mL; MIC [7]: ≤ 1 µg/mL; MIC [8]: ≤ 1 µg/mL; MIC ([9]; MRSA strain 891179): ≤ 1 µg/mL; MIC ([9]; MRSA strain 891185): ≤ 1 µg/mL; MIC ([9]; MRSA strain 891187): ≤ 1 µg/mL; MIC ([9]; MRSA strain 891192): ≤ 1 µg/mL; MIC ([9]; MRSA strain 900048): ≤ 1 µg/mL; MIC ([9]; MRSA strain 900056): ≤ 1 µg/mL; MIC (Enterococcus from fish; [18]): 1 to 10 µg/mL (≈ 1.84 to 18.4 µM); MIC (Pasteurella from fish; Pasteurella piscicida KP94-02): 1 to 10 µg/mL (≈ 1.84 to 18.4 µM); MIC [10]: 10 to 100 µg/mL (≈ 18.4 to 184 µM); MIC [11]: 10 to 100 µg/mL (≈ 18.4 to 184 µM)
Cc1cc(OC(C)C(=O)C(C#N)c2ccc(Cl)c(Cl)c2)ccc1Oc1ccc(C(F)(F)F)cc1Cl (centres unmarked) [compound 44] | – | – | – | – | – | – | – | – | – | – | 10 to 100 (≈ 18.4 to 184 µM) | ≤ 1 | ≤ 1 | ≤ 1 | ≤ 1 | ≤ 1 | ≤ 1 | ≤ 1 | ≤ 1 | 1 to 10 (≈ 1.84 to 18.4 µM) | –
Cc1cc(OC(C)C(=O)C(C#N)c2cccc(Br)c2)ccc1Oc1ccc(C(F)(F)F)cc1Cl (centres unmarked) [compound 45] | – | – | – | – | – | – | – | – | – | – | 10 to 100 (≈ 18.1 to 181 µM) | ≤ 1 | 1 to 10 (≈ 1.81 to 18.1 µM) | 1 to 10 (≈ 1.81 to 18.1 µM) | 1 to 10 (≈ 1.81 to 18.1 µM) | 1 to 10 (≈ 1.81 to 18.1 µM) | 1 to 10 (≈ 1.81 to 18.1 µM) | 1 to 10 (≈ 1.81 to 18.1 µM) | 1 to 10 (≈ 1.81 to 18.1 µM) | 1 to 10 (≈ 1.81 to 18.1 µM) | –
